According to PubChem BioAssay AID743396 (Broad Institute, 2014):
The source made the active and inactive calls.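 The calls were made as follows: active = fitted curve reaches a 40% rise in fluorescent cells at or below the top valid dose; inactive = opposite-direction effect, or the rest.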

Assay: autofluorescent compounds in non-GFP fibroblasts, dose response, artefact control for X-chromosome reactivation project, imaging, mTEFS fibroblasts, cherry-pick (AID 743396);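 also: raw share of Hoechst-counted cells scored GFP positive without control normalization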
Details: mTEFS fibroblasts autofluorescence, GFP-channel imaging, 3 days
[1] = at 19.5 µM (top of the series), cells pretreated with 5-aza-dC
[2] = at 21 µM (top of the series), cells pretreated with 5-aza-dC

Which % fluorescent cells increase [1] does the source give for `Cc1ccc(S(=O)(=O)Nc2ccc3c(c2)C(=O)N([C@H](C)CO)C[C@@H](C)[C@@H](CN(C)Cc2ccc(Cl)c(Cl)c2)OCCCC[C@H](C)O3)cc1` here?
Its % fluorescent cells increase is 8.98% (inactive).

For `CCOc1ccc(N2C(=O)CC(Sc3nc(O)c(CC)c(=O)[nH]3)C2=O)cc1` (stereo not given), which % fluorescent cells increase [1] is on record?
The % fluorescent cells increase was -0.007% (inactive).

Which % fluorescent cells increase [1] does the source give for `COc1cc(/C=C/C(=O)c2ccc([N+](=O)[O-])o2)ccc1O` here?
Its % fluorescent cells increase is 5.15% (inactive).

For `O=C(NCCOc1ccccc1)c1cc([N+](=O)[O-])ccc1N1CCOCC1`, which % fluorescent cells increase [1] is on record?
Its % fluorescent cells increase is 0.343% (inactive).

For `CC1Oc2ccccc2C=C1/C=N\NC(=O)c1cccnc1` (stereo not given), which % fluorescent cells increase [1] is on record?
Its % fluorescent cells increase is 0% (inactive).

For `CSc1ccc(CNCC2CCCO2)cc1` (stereo not given), which % fluorescent cells increase [1] is on record?
Its % fluorescent cells increase is 0.293% (inactive).

With `CC(=O)c1ccc2c(c1)OCCOCCOCCOCCOCCO2` as the compound, how does the % fluorescent cells increase [1] read?
The % fluorescent cells increase was 0.551% (inactive).

For `Cc1ccc2[nH]c(C(=O)O)c(NC(=O)[C@@H]3C[C@@H]3c3ccccc3)c2c1`, which % fluorescent cells increase [1] is on record?
Its % fluorescent cells increase is 0.266% (inactive).

For `CC(C)N1CCc2c(sc(NC(=O)c3cc4cc([N+](=O)[O-])ccc4s3)c2C(N)=O)C1`, which % fluorescent cells increase [1] is on record?
Its % fluorescent cells increase is 0% (inactive).

With `CCc1ccc(C(=O)NNc2ccc(S(N)(=O)=O)cc2)cc1` as the compound, how does the % fluorescent cells increase [1] read?
Its % fluorescent cells increase is -0.004% (inactive).

For `COc1ccc(/C=C\c2onc(C)c2S(=O)(=O)N2CCC(C(=O)NCc3ccco3)CC2)cc1`, which % fluorescent cells increase [1] is on record?
The % fluorescent cells increase was 0.029% (inactive).

Which % fluorescent cells increase [1] does the source give for `COc1ccccc1/C=C/C(=O)OCCCN(C)C` here?
The % fluorescent cells increase was 0% (inactive).

Which % fluorescent cells increase [1] does the source give for `Cc1occc1C(=O)N/N=C/C(Br)=C\c1ccccc1` here?
The % fluorescent cells increase was -0.004% (inactive).

Which % fluorescent cells increase [1] does the source give for `CCCOc1ccc(Oc2nc(-c3ccncc3)nc3ccccc23)cc1` here?
The % fluorescent cells increase was 0.007% (inactive).

With `COc1ccc(C2=NOC3(CC(=O)N(c4ccc(F)cc4)C3=O)C2)cc1` (stereo not given) as the compound, how does the % fluorescent cells increase [1] read?
Its % fluorescent cells increase is 0.016% (inactive).

With `COc1cc(CN2CCC(C(=O)NCC(C)(C)CN(C)C)CC2)ccc1OCc1ccccc1` as the compound, how does the % fluorescent cells increase [1] read?
The % fluorescent cells increase was 0.013% (inactive).

With `O=[N+]([O-])c1ccc(/C=N/NC(=S)Nc2ccc(Cl)cc2Cl)s1` as the compound, how does the % fluorescent cells increase [1] read?
Its % fluorescent cells increase is 0.614% (inactive).

With `CCOC(=O)c1ccc(NC(=O)C2(N3C(=O)c4ccccc4C3=O)CCCC2)cc1` as the compound, how does the % fluorescent cells increase [1] read?
Its % fluorescent cells increase is 0.495% (inactive).

With `COC(=O)Nc1ccc(S(=O)(=O)N2CCCC(C(=O)N3CCN(C)CC3)C2)cc1` (stereo not given) as the compound, how does the % fluorescent cells increase [1] read?
Its % fluorescent cells increase is 0% (inactive).

Which % fluorescent cells increase (at 19.5 µM (top of the series)) does the source give for `Cc1cc(=O)oc2cc3c(cc12)CCCN3` here?
The % fluorescent cells increase was 0.269% (inactive).

For `O=C(O)c1ccccc1CSc1nc2ccccc2n1Cc1ccccc1C(=O)O`, which % fluorescent cells increase [1] is on record?
The % fluorescent cells increase was 0.253% (inactive).

For `O=C(CCl)N=c1sccn1Cc1ccc(Cl)cc1Cl`, which % fluorescent cells increase [1] is on record?
The % fluorescent cells increase was 0% (inactive).

Which % fluorescent cells increase [1] does the source give for `COc1ccc(S(=O)(=O)N(C)C[C@H]2OCCCC[C@@H](C)Oc3ccc(NC(=O)NC(C)C)cc3C(=O)N([C@@H](C)CO)C[C@H]2C)cc1` here?
The % fluorescent cells increase was 0.53% (inactive).

Which % fluorescent cells increase [2] does the source give for `COc1ccc(S(=O)(=O)N(C)C[C@@H]2OCc3cn(nn3)CCCC(=O)N([C@@H](C)CO)C[C@@H]2C)cc1` here?
Its % fluorescent cells increase is 0.036% (inactive).

With `O=C(c1ccccc1Cl)N1CCSCCS1(=O)=O` as the compound, how does the % fluorescent cells increase [1] read?
Its % fluorescent cells increase is 0% (inactive).

With `NNc1nc2c(-c3ccc(F)cc3)nnn2c2ccccc12` as the compound, how does the % fluorescent cells increase [1] read?
Its % fluorescent cells increase is 0.008% (inactive).

For `COc1ccc(-n2nc(C#N)c(Cl)cc2=O)cc1`, which % fluorescent cells increase [1] is on record?
The % fluorescent cells increase was -0.006% (inactive).

For `NS(=O)(=O)c1cccc(-n2cnnn2)c1`, which % fluorescent cells increase [1] is on record?
Its % fluorescent cells increase is 0% (inactive).

For `COc1ccc(NC(=O)COc2ccc(C)c(C)c2)cc1S(=O)(=O)N1CCCCC1`, which % fluorescent cells increase [1] is on record?
Its % fluorescent cells increase is 0.026% (inactive).

Which % fluorescent cells increase [1] does the source give for `O=C(NNC(=O)c1ccccc1Cl)c1ccccc1Cl` here?
Its % fluorescent cells increase is 0.057% (inactive).

With `O=C(Cc1ccccn1)N1CCCCN2[C@H](C1)[C@@H](c1ccc(-c3ccccc3F)cc1)[C@@H]2CO` as the compound, how does the % fluorescent cells increase (at 19.5 µM (top of the series)) read?
The % fluorescent cells increase was 0.674% (inactive).

Which % fluorescent cells increase [1] does the source give for `COC(=O)C(C(C)C)N1CCc2c(C)nc3c(C#N)cnn3c21` (stereo not given) here?
The % fluorescent cells increase was 0.064% (inactive).

With `O=C(CNC(=O)c1ccccc1F)OCc1nc2ccccc2s1` as the compound, how does the % fluorescent cells increase [1] read?
The % fluorescent cells increase was 0.037% (inactive).

For `CCCC(=O)OCCNc1cc(Sc2nccn2C)c2nonc2c1[N+](=O)[O-]`, which % fluorescent cells increase [1] is on record?
Its % fluorescent cells increase is 0% (inactive).

Which % fluorescent cells increase [1] does the source give for `CCOC(=O)C1CCN(C(=O)c2ccc(NS(=O)(=O)c3ccc(F)cc3C)cc2)CC1` here?
The % fluorescent cells increase was 0% (inactive).

For `CCOC(=O)[C@]12CCC=C1N(Cc1ccccc1)C(=O)[C@H](CC(=O)N1CCSCC1)C2`, which % fluorescent cells increase [1] is on record?
Its % fluorescent cells increase is 0.038% (inactive).

Which % fluorescent cells increase [1] does the source give for `OC[C@@H]1Nc2ccc(C#Cc3ccccc3)cc2[C@H]2[C@@H]1CCN2Cc1nccs1` here?
The % fluorescent cells increase was 0.018% (inactive).

For `CC(C)N1C(=O)C(=O)N(CC(=O)N2CCc3ccccc32)C1=O`, which % fluorescent cells increase [1] is on record?
Its % fluorescent cells increase is 0.029% (inactive).

With `Cc1cc(N)ncc1[N+](=O)[O-]` as the compound, how does the % fluorescent cells increase [1] read?
Its % fluorescent cells increase is 0.218% (inactive).

Which % fluorescent cells increase [1] does the source give for `COc1ccc(NC(=O)C(C)N2C(=O)c3ccccc3C2=O)c(OC)c1` (stereo not given) here?
Its % fluorescent cells increase is 0.081% (inactive).

Which % fluorescent cells increase [1] does the source give for `CC(C)(C)N(Cc1ccccc1)C(=O)COC(=O)c1ccc(N2CCCC2=O)cc1` here?
The % fluorescent cells increase was -0.007% (inactive).

For `CCOC(=O)Nc1cc2c(c(N)n1)N=C(c1ccccc1)CN2`, which % fluorescent cells increase [1] is on record?
Its % fluorescent cells increase is 0.925% (inactive).

Which % fluorescent cells increase [1] does the source give for `Cc1ccc(NCc2nnc(SCC(=O)NNC(=O)Cc3ccccc3)n2C)cc1` here?
The % fluorescent cells increase was 0.009% (inactive).

Which % fluorescent cells increase [1] does the source give for `CC(=O)N(C)C[C@@H]1Oc2ncc(-c3cccnc3)cc2C(=O)N([C@@H](C)CO)C[C@@H]1C` here?
Its % fluorescent cells increase is 0.097% (inactive).

Which % fluorescent cells increase [1] does the source give for `COc1cccc(NC(=O)N(C)C[C@@H]2Oc3cc(Br)ccc3S(=O)(=O)N([C@@H](C)CO)C[C@H]2C)c1` here?
The % fluorescent cells increase was 0.017% (inactive).

With `C=C(C)c1cccc(C(C)(C)NC(=O)Nc2nnc(C(C)C)s2)c1` as the compound, how does the % fluorescent cells increase [1] read?
Its % fluorescent cells increase is 0% (inactive).

Which % fluorescent cells increase [1] does the source give for `CCOc1ccc(CCN2C(=S)N([C@@H](Cc3ccccc3)CN3CCC[C@@H]3CN3C(=S)NC[C@@H]3CC(C)C)C[C@@H]2Cc2ccccc2)cc1` here?
Its % fluorescent cells increase is 0.019% (inactive).

Which % fluorescent cells increase [1] does the source give for `C/C(=N\NC(=O)CC1N=C(Cc2ccccc2)NNC1=O)c1ccc(Br)cc1` (stereo not given) here?
Its % fluorescent cells increase is 0.037% (inactive).

Which % fluorescent cells increase [1] does the source give for `CCCCC(CCC(=O)Nc1ccn(-c2ccccc2)n1)C(=O)O` (stereo not given) here?
The % fluorescent cells increase was -0.003% (inactive).

For `COc1ccc2c3c(n(C)c2c1)[C@H](CO)N(C(=O)CN1CCOCC1)CC31CCN(C(=O)Nc2cccc(F)c2)CC1`, which % fluorescent cells increase [1] is on record?
Its % fluorescent cells increase is 0% (inactive).

Which % fluorescent cells increase [1] does the source give for `COc1ccc(OCCN2CCC(C(=O)NC(c3ccc(C)cc3)c3ccccn3)CC2)cc1` (stereo not given) here?
Its % fluorescent cells increase is 0.021% (inactive).

For `CCC(=O)OCCNc1cc(Sc2nc3ccccc3[nH]2)c2nonc2c1[N+](=O)[O-]`, which % fluorescent cells increase [1] is on record?
Its % fluorescent cells increase is -0.003% (inactive).

For `COc1ccc(CNC(=O)c2ccc(-c3cnn(C)c3)c3ccoc23)cc1OC`, which % fluorescent cells increase [1] is on record?
Its % fluorescent cells increase is 1.28% (inactive).

For `CCCOc1ccc(C(=O)Nc2ccc(CN3CCOCC3)cc2)cc1`, which % fluorescent cells increase [1] is on record?
Its % fluorescent cells increase is 0% (inactive).

Which % fluorescent cells increase [1] does the source give for `CCOc1ccc(C(Nc2cccnc2)c2cc(Cl)c3cccnc3c2O)cc1` (stereo not given) here?
Its % fluorescent cells increase is 0% (inactive).

With `COc1ccc(-c2ccc(C3[C@@H]4CN(S(=O)(=O)c5ccccc5C)C[C@H]3N4)cc2)cc1` (stereo not given in full) as the compound, how does the % fluorescent cells increase [1] read?
Its % fluorescent cells increase is 0% (inactive).

Which % fluorescent cells increase [1] does the source give for `CC(C)(C)NC(=O)C(c1c[nH]c2ccccc12)N(C(=O)Cn1nnc(-c2ccc(Cl)cc2)n1)c1ccccc1F` (stereo not given) here?
The % fluorescent cells increase was 0.176% (inactive).

Which % fluorescent cells increase [1] does the source give for `CCOC(=O)c1sc2nc(CSc3ccccc3)[nH]c(=O)c2c1C` here?
The % fluorescent cells increase was 0.048% (inactive).

For `CCCCCCCCN1C(=O)[C@H](CC(=O)N2CCSCC2)C[C@@]2(C(=O)OCC)CCCC=C12`, which % fluorescent cells increase [1] is on record?
Its % fluorescent cells increase is 0.056% (inactive).

For `Cc1noc(C)c1NC(=O)N(C)C[C@@H]1Oc2ccc(NC(=O)C3CC3)cc2CC(=O)N([C@@H](C)CO)C[C@@H]1C`, which % fluorescent cells increase [2] is on record?
The % fluorescent cells increase was 0.068% (inactive).
